US8889840B2, “Vascular leakage inhibitor” (Industry-Academic Cooperation Foundation, Yonsei University, priority 2009, dated 2014)

Columns and labels:
HUVECs = assay: VEGF-induced actin stress fibers in HUVECs, rhodamine phalloidin staining; assay type: cell-based, human; conditions: 10 μg/mL pretreatment 1 hour, 20 ng/mL VEGF
Experimental: Confluent HUVECs were pretreated with the compounds (10 μg/mL) for 60 minutes before treating with 20 ng/mL VEGF (1 hr). The cells were then stained with rhodamine phalloidin.
It is known that the change in the actin structure of the cytoskeleton is closely related with the permeability of vascular endothelial cells. Increased permeability of vascular endothelial cells leads to increased formation of actin stress fibers and decrease of cortical actin ring structures. Based on this, the ability of inhibiting vascular endothelial permeability of the synthesized Rk1 derivatives was screened. Confluent HUVECs were pretreated with the synthesized compounds (10 μg/mL) for 1 hour before treating with 20 ng/mL VEGF (Upstate Biotechnology). Subsequently, the cells were fixed with 4% paraformaldehyde for 20 minutes at room temperature and washed 3 times with PBS (pH 7.4). Then, the cells were permeabilized with 0.1% Triton X-100/PBS and reacted with 0.1 mg/mL rhodamine phalloidin (Molecular Probes) for 1 hour. Then, the cells were observed under a fluorescence microscope (Olympus).

HRECs [1] = assay: Permeability of HRECs on transwell filter, labelled sucrose; assay type: cell-based, human; conditions: 10 μg/mL 60 minutes, with or without 20 ng/mL VEGF
Experimental: HRECs were seeded on a transwell filter. After reaching confluency, the cells were pretreated with Sac0601 (FIG. 10a) and Sac0504 (FIG. 10b) for 60 minutes before treating with 20 ng/ml. VEGF (1 hr). The permeability of HRECs was determined by measuring radiation of […] (1 μCi/μL) diffused below the transwell using a liquid scintillation counter.
The effect of Sac0601 and Sac0504 on vascular permeability was analyzed. HRECs were seeded on a transwell filter (Corning Costar). After reaching confluency, the cells were cultured in M199 medium containing 1% FBS for 3 hours and treated with 10 μg/mL. Sac0601 (FIG. 10a) or Sac0504 (FIG. 10b) for 60 minutes, with or without pretreatment with 20 ng/mL VEGF for 60 minutes. Then, [^3H]sucrose (1 μCi [0.037 MBq.]/μL or 50 μL (0.8 μCi [0.0296 MBq])/mL, Amersham Pharmacia) were added. 30 minutes later, radiation diffused below the transwell was measured using a liquid scintillation counter (Wallac, PerkinElmer). Measurement was made at least four locations.

[2] = test system: human retinal endothelial cells (HRECs); assay: Serum depletion-induced apoptosis of HRECs, MTT assay and cell morphology; assay type: cell-based; conditions: serum-free medium, 0.1-10 μg/mL
Experimental: HRECs (3×10^4 cells/well) were seeded on a 24-well plate in M199 medium containing 20% fetal bovine serum. The next day, the cells were transferred to a medium containing […] Sac0601 (FIG. 4a) or 0.1-10 μg/mL Sac0504 (FIG. 4b). Cell viability was determined by MTT assay 48 hours later. FIGS. 5a-5c show the result of observing cell morphologies.
Human umbilical vein endothelial cells (HUVECs) and human retinal endothelial cells (HRECs) purchased from Cell Systems (USA) were seeded on a 100-mm culture dish in M199 medium (Life Technologies, USA) containing 20% (w/v) fetal bovine serum (FBS, HyClone, Canada), 100 units/mL penicillin (Invitrogen, USA), 100 μg/mL streptomycin (invitrogen, USA), 3 ng/mL basic fibroblast growth factor (bFGF, Upstate Biotechnology, USA) and 5 units/mL heparin and cultured in a 5% CO2 incubator at 37° C.
Also, HRECs were treated with the compounds synthesized in Synthesis Example 5 and MIT assay was performed 48 hours later in the same manner as described above.
Also, the acid compound wherein the methyl ester formed by the introduction of the ester group was hydrolyzed was synthesized to provide improved water solubility and activity. MYT assay was performed for the compounds synthesized in Synthesis Example 6 in the same manner as described above 48 hours after treatment.
Their ability of inhibiting apoptosis was confirmed again for HRECs. HRECs (3×10^4 cells/well) were seeded on a 24-well plate in M199 medium (1 mL) containing 20% fetal bovine serum, Next day, the cells were transferred to serum-free M199 medium containing 0.1-10 μg/ml. Sac060.1 (FIG. 4a) or 0.1-10 μg; mL Sac0504 (FIG. 4b). Cell viability was determined by MTF assay in the same manner as in Test Example 1.
Their ability of inhibiting apoptosis was confirmed again for HRECs.

HRECs [3] = assay: Stability of tight junctions (TJs) at cell-cell contacts in VEGF-treated HRECs, anti-occludin immunostaining; assay type: cell-based, human; conditions: 10 μg/mL 1 hour, then 20 ng/mL VEGF 1 hour
Experimental: In FIG. 8a, confluent HRECs were pretreated with Sac0601 (panel A in FIG. 8a) or Sac0504 (panel B in FIG. 8a) for 60 minutes before treating with 20 ng/ml. VEGF (1 hr). The cells were then stained with occludin antibody.
(§1) Confluent HRECs were treated with 10 μg/mL Sac0601 (FIG. 8a, panel A) or Sac0504 (FIG. 8a, panel B) for 1 hour and then with 20 ng/mL. VEGF for 1 hour. Subsequently, the cells were fixed at room temperature for 20 minutes with 4% paraformaldehyde and permeabilized with 0:1% Triton X-100/PBS. Then, the cells were incubated in PBS blocking solution containing 5% normal goat serum and 0.05% Tween-20. The cells were then reacted with anti-occludin antibody (Zymed Laboratories Inc.). The result was visualized with fluorescein-conjugated anti-mouse antibody (Vector Lab.). Also, western blotting was conducted for the cell lysate. The cell lysate was fractionated with SDS-PAGE and then transferred to polyvinyl difluoride membrane. The blocked membrane was reacted with anti-occludin antibody (Zymed Laboratories Inc.) and the immune response band was visualized with the chemiluminescence reagent obtained from Amersham Biosciences, Inc.

occludin = assay: Occludin western blotting of HREC lysate; assay type: cell-based, human; conditions: HRECs, pretreatment 60 minutes, then 20 ng/mL VEGF 1 hour
Experimental: In FIG. 8b, confluent HRECs were pretreated with Sac0601 (10 μg/mL) for 60 minutes before treating with 20 ng/mL VEGF (1 hr). Then, cell lysate was subjected to western blotting using anti-occludin antibody.
as §1

C57/BL6 mouse = assay: Vascular leakage induced by VEGF in mouse retina, FITC-dextran; assay type: in vivo; conditions: VEGF 50 ng and compound 10 μg into the vitreous body, 24 hours
Experimental: VEGF (50 ng) and Sac0601 (10 μg) were injected into the vitreous body of C57/BL6 mouse. An excipient (DMSO) was injected into the other eye. 24 hours after the injection, 100 μL FITC-dextran (30 mg/mL in PBS, Sigma) was injected into the left ventricle. After waiting for about 2 minutes for circulation of the tracer, the eyes were taken out and fixed immediately in 4% PFA, Then, the retina was taken out and observed under an optical microscope.

Compound | cortical actin ring structure (HUVECs) | formation of actin stress fibers induced by VEGF (HUVECs) | permeability of the vascular endothelial cells (HRECs [1]) | ability of protecting retinal vascular endothelial cells from apoptosis induced by the removal of serum (MTT) [2] | redistribution of TJs into the cytoplasm or destabilizing at the cell membrane induced by VEGF (HRECs [3]) | stability of TJs between cells (HRECs [3]) | occludin (western blotting) (occludin) | vascular leakage induced by VEGF (C57/BL6 mouse)
CC(C)CCC[C@@H](C)[C@H]1CC[C@H]2[C@@H]3CC=C4C[C@@H](OC5CCCCO5)CC[C@]4(C)[C@H]3CC[C@]12C (some centres unmarked) [Sac0504] | increased the cortical actin ring structure | inhibited the formation of actin stress fibers induced by VEGF | inhibiting permeability of the vascular endothelial cells | have the ability of protecting the retinal vascular endothelial cells from apoptosis | could be inhibited | enhanced |  | 
CC(=O)OCC1OC(OC2CCC3(C)C(=CCC4C3CCC3(C)C(C(C)CCCC(C)C)CCC43)C2)C=CC1OC(C)=O (centres unmarked) [Sac0601] | increased the cortical actin ring structure | inhibited the formation of actin stress fibers induced by VEGF | inhibiting permeability of the vascular endothelial cells | have the ability of protecting the retinal vascular endothelial cells from apoptosis | could be inhibited | more effective in enhancing the stability of TJs than Sac0504 | results in decrease of occludin | greatly decreases
